# Earlier results, collected in patent EP0163237A2, “Di- and tri-peptidal renin inhibitors” (Merck & Co., Inc., priority 1984, dated 1985).
# Where a SMILES comes first, the peptide text is derived from it. [ ]: non-standard residue; d: D form. The star is where a group is joined. Sta = CC(C)C[C@H](N)[C@@H](O)CC(=O)O; Isovaleryl = CC(C)CC(=O)*
# Tested on: hog renin
# Conditions: after the injection of hog renin into nephrectomized rats
smiles,measurement,value
CC(C)CC(=O)N[C@H](C(=O)N[C@H](C(=O)N[C@@H](CC(C)C)[C@@H](O)CC(=O)N[C@@H](C)C(=O)N[C@@H](CC(C)C)[C@@H](O)CC(=O)O)C(C)C)C(C)C [pepstatin] (Isovaleryl-VV[Sta]A[Sta]-OH),blood pressure in vivo,reduce blood pressure
